pKd: −log10 of the molar value.

From paper PMC3645732, “A Differential Redox Regulation of the Pathways Metabolizing Glyceraldehyde-3-Phosphate Tunes the Production of Reducing Power in the Cytosol of Plant Cells” (International Journal of Molecular Sciences, 2013) come the findings set out here.

For assay [1], the target named is T1, np-Ga3PDHase (non-phosphorylating NADP+-dependent glyceraldehyde-3-phosphate dehydrogenase, EC 1.2.1.9) (Triticum aestivum, UniProt Q8LK61).
T1 construct: gene GAPN; recombinant wheat enzyme (NCBI DQ268762), pRSETB/TagapN, E. coli
T1 sequence (Q8LK61 1-496): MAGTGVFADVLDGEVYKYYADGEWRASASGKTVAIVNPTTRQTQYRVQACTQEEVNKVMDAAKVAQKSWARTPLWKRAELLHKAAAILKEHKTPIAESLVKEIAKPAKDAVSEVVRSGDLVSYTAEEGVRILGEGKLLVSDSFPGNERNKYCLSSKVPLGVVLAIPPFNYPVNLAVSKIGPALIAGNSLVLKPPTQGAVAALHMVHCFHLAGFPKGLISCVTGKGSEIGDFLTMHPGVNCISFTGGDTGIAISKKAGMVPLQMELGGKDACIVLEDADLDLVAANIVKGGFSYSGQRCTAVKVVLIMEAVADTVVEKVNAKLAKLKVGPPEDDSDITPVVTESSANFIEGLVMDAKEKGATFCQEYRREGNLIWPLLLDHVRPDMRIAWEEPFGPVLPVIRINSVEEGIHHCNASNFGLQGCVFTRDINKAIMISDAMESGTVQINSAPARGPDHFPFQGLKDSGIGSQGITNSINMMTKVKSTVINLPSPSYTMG
As to the kind of experiment: Kd from protection against H2O2 inactivation of purified enzyme (Mildvan and Leigh plot). The class given is biochemical.

For assay [2], the target named is T2, Ga3PDHase (phosphorylating NAD+-dependent glyceraldehyde-3-phosphate dehydrogenase, EC 1.2.1.12) (Triticum aestivum, UniProt A5YVV3).
T2 construct: gene GAPC; recombinant wheat gapC (NCBI EF592180), homotetramer, E. coli
As to the kind of experiment: Kd from protection against H2O2 inactivation in presence of NAD+ (Mildvan and Leigh plot); S0.[…] by enzyme kinetics. It is filed as biochemical.

T2 sequence (A5YVV3 1-337): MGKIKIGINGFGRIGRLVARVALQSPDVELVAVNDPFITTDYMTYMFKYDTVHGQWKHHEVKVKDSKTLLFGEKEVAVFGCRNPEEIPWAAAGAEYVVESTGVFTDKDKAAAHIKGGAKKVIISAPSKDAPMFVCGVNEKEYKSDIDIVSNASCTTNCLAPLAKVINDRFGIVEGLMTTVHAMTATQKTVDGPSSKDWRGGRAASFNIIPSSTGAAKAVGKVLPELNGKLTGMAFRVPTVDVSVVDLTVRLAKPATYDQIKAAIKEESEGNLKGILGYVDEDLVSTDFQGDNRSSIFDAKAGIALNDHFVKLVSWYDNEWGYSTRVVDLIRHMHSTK

In turn, `NC(=O)c1ccc[n+]([C@@H]2O[C@H](COP(=O)([O-])OP(=O)(O)OC[C@H]3O[C@@H](n4cnc5c(N)ncnc54)[C@H](OP(=O)(O)O)[C@@H]3O)[C@@H](O)[C@H]2O)c1` [NADP^+] gave a pKd in assay [1] of 5.60.
Turning to `O=C[C@H](O)COP(=O)(O)O` [glyceraldehyde-3-phosphate], the pKd in assay [2] is 3.94.

As a reminder, the pKd is the Kd on a negative log10 scale, so that one unit is a factor of ten.
